# Experimental data reported in article PMC3995681, “Structural, Kinetic and Proteomic Characterization of Acetyl Phosphate-Dependent Bacterial Protein Acetylation” (PLoS ONE, 2014).
# What was measured:
# [1] = target: T1, GapA (glyceraldehyde-3-phosphate dehydrogenase) (Escherichia coli, UniProt P0A9B2); test: X-ray crystallography; settings: NAD+-binding site, part of the molecules in the asymmetric unit
# T1 construct: full ORF, N-terminal His6 tag plus TDPALRA spacer (ASKA clone, pCA24N), expressed in E. coli BL21(DE3); tetramer
# [2] = target: T1, GapA (glyceraldehyde-3-phosphate dehydrogenase); test: X-ray crystallography, crystal soak ( […] sec); format: binding; settings: covalent; acetylation of K46, K249, K257, K116; pH 7.5
# [3] = target: T2, LpdA (dihydrolipoyl dehydrogenase) (Escherichia coli, UniProt P0A9P0); test: in vitro acetylation, anti-acetyllysine Western blot and MS1 Filtering; format: biochemical; settings: covalent; non-enzymatic lysine acetylation, non-saturating; 5-20 mM acP, 10 mM MgCl2, pH 7.3, 37°C
# T2 construct: full ORF, N-terminal His6 tag plus TDPALRA spacer (ASKA clone, pCA24N), expressed in E. coli BL21(DE3)
# [4] = target: T3, TpiA (triosephosphate isomerase) (Escherichia coli, UniProt P0A858); test: X-ray crystallography, crystal soak ( […] sec); format: binding; settings: pH 6.5; active site near K11; non-covalent (K11 not acetylated)
# T3 construct: full ORF, N-terminal His6 tag plus TDPALRA spacer (ASKA clone, pCA24N), expressed in E. coli BL21(DE3)
# [5] = target: T4, RNAP sigma70 holoenzyme (Escherichia coli, UniProt P00579+P0A7Z4+P0A8V2); test: in vitro acetylation, anti-acetyllysine Western blot and MS1 Filtering; format: biochemical; settings: covalent; acetylation of RpoA K297, RpoB K1065, RpoD K493 and K593; 10 mM acP, 30 min, 10 mM MgCl2
# T4 construct: gene rpoA; with DNA-directed RNA polymerase subunit beta'; DNA-directed RNA polymerase subunit omega
# T4 sequence (P0A7Z4 whole entry): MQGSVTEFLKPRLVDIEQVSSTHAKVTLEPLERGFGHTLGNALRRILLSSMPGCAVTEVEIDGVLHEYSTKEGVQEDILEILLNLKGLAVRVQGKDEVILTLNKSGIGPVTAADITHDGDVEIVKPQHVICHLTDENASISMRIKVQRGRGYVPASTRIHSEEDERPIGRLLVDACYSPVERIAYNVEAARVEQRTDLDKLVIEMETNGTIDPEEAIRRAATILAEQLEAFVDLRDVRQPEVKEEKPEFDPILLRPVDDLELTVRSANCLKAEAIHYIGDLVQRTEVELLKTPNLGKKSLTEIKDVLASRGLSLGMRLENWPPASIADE
# T4 sequence (P0A8V2 whole entry): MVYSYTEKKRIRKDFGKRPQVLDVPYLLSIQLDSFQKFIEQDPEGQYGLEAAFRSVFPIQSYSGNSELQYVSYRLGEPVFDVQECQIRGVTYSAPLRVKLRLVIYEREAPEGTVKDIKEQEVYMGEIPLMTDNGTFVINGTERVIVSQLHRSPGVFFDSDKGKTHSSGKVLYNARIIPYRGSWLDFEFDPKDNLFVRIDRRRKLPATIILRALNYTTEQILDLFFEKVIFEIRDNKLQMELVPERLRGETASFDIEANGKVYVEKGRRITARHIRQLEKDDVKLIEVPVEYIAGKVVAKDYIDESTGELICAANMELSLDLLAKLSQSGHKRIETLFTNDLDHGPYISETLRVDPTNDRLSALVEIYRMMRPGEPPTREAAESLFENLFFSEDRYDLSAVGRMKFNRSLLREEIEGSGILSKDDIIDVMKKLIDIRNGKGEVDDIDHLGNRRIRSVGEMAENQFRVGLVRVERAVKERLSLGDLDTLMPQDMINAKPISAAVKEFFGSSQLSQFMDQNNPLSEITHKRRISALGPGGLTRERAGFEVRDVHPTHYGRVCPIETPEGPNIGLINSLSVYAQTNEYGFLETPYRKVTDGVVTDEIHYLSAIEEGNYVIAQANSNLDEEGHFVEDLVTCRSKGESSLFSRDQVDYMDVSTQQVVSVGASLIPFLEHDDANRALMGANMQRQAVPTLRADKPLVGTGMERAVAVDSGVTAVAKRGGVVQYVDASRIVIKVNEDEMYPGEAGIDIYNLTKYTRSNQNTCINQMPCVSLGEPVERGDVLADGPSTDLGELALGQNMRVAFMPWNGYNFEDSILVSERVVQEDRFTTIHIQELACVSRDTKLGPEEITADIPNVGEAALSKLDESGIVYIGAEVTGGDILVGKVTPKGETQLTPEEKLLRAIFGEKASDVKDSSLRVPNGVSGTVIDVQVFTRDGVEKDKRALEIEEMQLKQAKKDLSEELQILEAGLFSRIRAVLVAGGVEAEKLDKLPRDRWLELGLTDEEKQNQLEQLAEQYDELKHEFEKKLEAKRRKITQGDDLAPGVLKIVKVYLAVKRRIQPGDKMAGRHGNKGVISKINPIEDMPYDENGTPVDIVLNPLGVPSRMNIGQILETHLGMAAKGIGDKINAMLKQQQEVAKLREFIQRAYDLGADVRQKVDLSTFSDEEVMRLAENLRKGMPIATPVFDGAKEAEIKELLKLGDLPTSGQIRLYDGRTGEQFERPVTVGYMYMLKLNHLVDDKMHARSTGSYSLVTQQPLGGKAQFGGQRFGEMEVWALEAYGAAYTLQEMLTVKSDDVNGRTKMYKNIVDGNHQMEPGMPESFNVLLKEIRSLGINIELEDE
# T4 sequence (P00579 whole entry): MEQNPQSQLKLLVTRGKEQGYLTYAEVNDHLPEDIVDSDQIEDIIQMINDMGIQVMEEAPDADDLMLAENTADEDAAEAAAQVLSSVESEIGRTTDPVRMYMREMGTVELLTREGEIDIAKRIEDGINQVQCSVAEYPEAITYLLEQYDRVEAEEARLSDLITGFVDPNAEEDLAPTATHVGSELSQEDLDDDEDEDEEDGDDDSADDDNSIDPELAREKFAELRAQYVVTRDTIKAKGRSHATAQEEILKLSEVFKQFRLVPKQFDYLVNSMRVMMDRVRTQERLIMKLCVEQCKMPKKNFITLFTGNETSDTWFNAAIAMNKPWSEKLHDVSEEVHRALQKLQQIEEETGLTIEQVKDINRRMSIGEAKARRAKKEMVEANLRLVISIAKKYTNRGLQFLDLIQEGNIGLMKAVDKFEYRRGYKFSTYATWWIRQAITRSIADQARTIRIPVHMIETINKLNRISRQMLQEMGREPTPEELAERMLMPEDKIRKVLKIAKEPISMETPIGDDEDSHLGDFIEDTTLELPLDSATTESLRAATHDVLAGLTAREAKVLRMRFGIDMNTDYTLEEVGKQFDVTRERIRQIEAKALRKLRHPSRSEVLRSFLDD
# T4 sequence (P0A8T7 whole entry partner): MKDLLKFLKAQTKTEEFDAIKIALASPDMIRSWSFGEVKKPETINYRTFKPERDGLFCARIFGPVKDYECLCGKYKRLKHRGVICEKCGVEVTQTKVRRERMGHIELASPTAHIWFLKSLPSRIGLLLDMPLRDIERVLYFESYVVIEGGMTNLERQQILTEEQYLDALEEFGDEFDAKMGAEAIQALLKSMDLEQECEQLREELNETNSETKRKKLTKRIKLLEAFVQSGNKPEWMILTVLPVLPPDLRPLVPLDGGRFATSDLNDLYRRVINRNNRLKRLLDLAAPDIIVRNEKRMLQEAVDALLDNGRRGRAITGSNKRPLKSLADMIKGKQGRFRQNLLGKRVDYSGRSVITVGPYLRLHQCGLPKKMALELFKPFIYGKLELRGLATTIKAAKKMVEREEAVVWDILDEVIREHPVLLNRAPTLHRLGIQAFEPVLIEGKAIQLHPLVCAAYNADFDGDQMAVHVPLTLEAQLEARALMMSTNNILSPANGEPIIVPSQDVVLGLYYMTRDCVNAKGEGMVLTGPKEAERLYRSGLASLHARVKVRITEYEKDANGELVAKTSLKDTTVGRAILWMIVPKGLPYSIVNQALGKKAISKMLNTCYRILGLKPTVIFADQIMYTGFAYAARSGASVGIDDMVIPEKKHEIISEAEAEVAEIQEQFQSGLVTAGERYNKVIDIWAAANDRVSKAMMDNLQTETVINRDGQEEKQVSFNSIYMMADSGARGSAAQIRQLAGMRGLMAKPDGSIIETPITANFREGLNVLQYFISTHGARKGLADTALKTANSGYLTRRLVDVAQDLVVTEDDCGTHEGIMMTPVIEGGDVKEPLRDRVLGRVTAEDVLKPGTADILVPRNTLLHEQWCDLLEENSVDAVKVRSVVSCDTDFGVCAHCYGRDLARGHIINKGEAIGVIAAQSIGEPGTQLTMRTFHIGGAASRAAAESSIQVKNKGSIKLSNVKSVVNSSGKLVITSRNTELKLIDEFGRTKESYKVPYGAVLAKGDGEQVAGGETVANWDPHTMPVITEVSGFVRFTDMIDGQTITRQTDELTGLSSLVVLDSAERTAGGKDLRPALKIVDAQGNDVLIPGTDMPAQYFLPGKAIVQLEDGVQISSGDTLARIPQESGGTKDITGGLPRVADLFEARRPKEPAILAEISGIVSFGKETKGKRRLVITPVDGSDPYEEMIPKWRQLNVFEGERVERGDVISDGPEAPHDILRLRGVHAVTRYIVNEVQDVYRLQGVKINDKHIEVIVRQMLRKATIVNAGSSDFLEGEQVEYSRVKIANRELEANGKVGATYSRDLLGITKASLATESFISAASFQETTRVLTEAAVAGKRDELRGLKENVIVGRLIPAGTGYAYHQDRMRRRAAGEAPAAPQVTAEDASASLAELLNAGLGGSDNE
# T4 sequence (P0A800 2-91 partner): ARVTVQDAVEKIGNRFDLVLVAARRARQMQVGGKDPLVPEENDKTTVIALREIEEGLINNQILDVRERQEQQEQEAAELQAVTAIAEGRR
# T1 sequence (P0A9B2 whole entry): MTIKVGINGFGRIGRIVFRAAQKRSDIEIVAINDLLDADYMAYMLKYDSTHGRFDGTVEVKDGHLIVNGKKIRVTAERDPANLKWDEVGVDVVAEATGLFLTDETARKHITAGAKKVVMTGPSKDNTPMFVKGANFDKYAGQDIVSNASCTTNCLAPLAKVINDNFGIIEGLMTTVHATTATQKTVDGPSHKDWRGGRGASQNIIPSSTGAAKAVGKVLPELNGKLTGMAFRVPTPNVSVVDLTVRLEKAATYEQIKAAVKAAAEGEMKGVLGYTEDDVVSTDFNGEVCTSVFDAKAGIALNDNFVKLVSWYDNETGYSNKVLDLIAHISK
# T3 sequence (P0A858 whole entry): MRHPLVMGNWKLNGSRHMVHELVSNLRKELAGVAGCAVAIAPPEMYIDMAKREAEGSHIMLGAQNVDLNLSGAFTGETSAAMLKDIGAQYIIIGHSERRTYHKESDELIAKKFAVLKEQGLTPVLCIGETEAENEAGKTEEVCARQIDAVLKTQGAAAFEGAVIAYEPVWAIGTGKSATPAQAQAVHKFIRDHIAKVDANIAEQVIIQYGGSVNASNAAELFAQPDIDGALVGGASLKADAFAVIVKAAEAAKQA
# T2 sequence (P0A9P0 whole entry): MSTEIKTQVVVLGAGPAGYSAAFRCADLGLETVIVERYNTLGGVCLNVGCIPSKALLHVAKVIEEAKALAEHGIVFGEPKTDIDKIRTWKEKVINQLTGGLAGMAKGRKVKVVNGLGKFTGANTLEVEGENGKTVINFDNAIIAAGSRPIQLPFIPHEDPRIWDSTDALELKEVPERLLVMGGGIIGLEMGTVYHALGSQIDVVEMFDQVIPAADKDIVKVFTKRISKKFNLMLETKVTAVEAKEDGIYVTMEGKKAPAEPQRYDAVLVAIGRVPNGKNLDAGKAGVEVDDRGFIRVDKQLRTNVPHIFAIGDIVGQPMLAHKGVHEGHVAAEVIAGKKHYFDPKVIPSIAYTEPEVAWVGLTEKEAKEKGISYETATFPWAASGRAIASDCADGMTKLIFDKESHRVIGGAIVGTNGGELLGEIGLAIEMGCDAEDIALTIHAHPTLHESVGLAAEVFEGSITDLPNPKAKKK
smiles,measurement,setting,value
NC(=O)c1ccc[n+]([C@@H]2O[C@H](COP(=O)(O)OP(=O)(O)OC[C@H]3O[C@@H](n4cnc5c(N)ncnc54)[C@H](O)[C@@H]3O)[C@@H](O)[C@H]2O)c1 [NAD^+],X-ray crystallography,[1],had either NAD^+ or pyrophosphate bound in the NAD^+-binding site
CC(=O)OP(=O)(O)O [acP],"X-ray crystallography, crystal soak (<30 sec)",[2],"acP-dependent acetylation had already occurred on four residues (i.e., K46, K249, K257, and K116)"
same,"in vitro acetylation, anti-acetyllysine Western blot and MS1 Filtering",[3],"when incubated with acP, purified LpdA became acetylated in a dose- and time-dependent manner"
same,"X-ray crystallography, crystal soak (<30 sec)",[4],"The structures showed that acP bound near K11, where the substrate DHAP is seen to bind"
same,"in vitro acetylation, anti-acetyllysine Western blot and MS1 Filtering",[5],"significant relative increases in acetylation were observed for K297 of RpoA, for K1065 of RpoB"
O=P(O)(O)OP(=O)(O)O [pyrophosphate],X-ray crystallography,[1]; source of ligand not told,had either NAD^+ or pyrophosphate bound in the NAD^+-binding site
